# Assay results taken from the supplement of paper PMC10307832.
# Compound: O=C(/C=C/c1cccnc1)NCCCCC1CCN(C(=O)c2ccccc2)CC1 [Daporinad] + CC(=O)Nc1cccc(-n2c(=O)n(C3CC3)c(=O)c3c(Nc4ccc(I)cc4F)n(C)c(=O)c(C)c32)c1 [Trametinib] (partner 0.02 µM)
# Experiment: relative viability (nuclei count vs DMSO), 5 days (fraction); higher = more cells survive
# Settings: first compound 0.0005 µM
# Method in brief: (§1)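 Relative viability was taken as the ratio of nuclei in treated wells to nuclei in vehicle wells. Lung cancer cell lines in 1536-well plates received compounds by pin tool one day after seeding, either one drug alone or a fixed anchor-drug dose plus five library-drug doses (not always all listed) in √10 steps. Nuclei were counted on 4× images after 5 days of treatment, and values are medians of duplicate plates.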
row,Cell Line,relative viability
1,NCI-H2009,0.261
2,A-427,0.695
3,NCI-H460,0.0943
4,NCI-H727,0.398
5,NCI-H1734,0.725
6,NCI-H520,0.639
7,NCI-H2347,0.301
8,SW 1573,0.499
9,NCI-H1395,1.04
10,201T,0.713
11,NCI-H1915,0.28
12,HCC-827,0.498
13,LXF-289,0.569
14,NCI-H23,0.395
15,NCI-H650,1.05
16,CAL-12T,0.275
17,NCI-H1651,0.854

row,Cell Line,relative viability
1,EPLC-272H,0.295
2,NCI-H2228,0.439
3,NCI-H1792,0.412
4,NCI-H1355,0.409
5,NCI-H3122,0.165
6,NCI-H1437,0.444
7,NCI-H1755,0.751
8,NCI-H2023,0.605
9,HCC-15,0.339
10,PC-3 [JPC-3],0.667
11,EKVX,0.288
12,LC-2-ad,0.907
13,NCI-H1975,0.329
14,SK-LU-1,0.48
15,NCI-H1944,0.449
16,NCI-H661,0.665
17,RERF-LC-KJ,0.788

# Same assay, conditions: first compound 0.001581 µM
row,Cell Line,relative viability
1,NCI-H2009,0.35
2,A-427,0.825
3,NCI-H460,0.147
4,NCI-H727,0.453
5,NCI-H1734,0.764
6,NCI-H520,0.721
7,NCI-H2347,0.288
8,SW 1573,0.45
9,NCI-H1395,1.04
10,201T,0.731
11,NCI-H1915,0.309
12,HCC-827,0.508
13,LXF-289,0.663
14,NCI-H23,0.382
15,NCI-H650,1.14
16,CAL-12T,0.378
17,NCI-H1651,0.825

row,Cell Line,relative viability
1,EPLC-272H,0.317
2,NCI-H2228,0.18
3,NCI-H1792,0.471
4,NCI-H1355,0.465
5,NCI-H3122,0.227
6,NCI-H1437,0.544
7,NCI-H1755,0.761
8,NCI-H2023,0.523
9,HCC-15,0.429
10,PC-3 [JPC-3],0.714
11,EKVX,0.329
12,LC-2-ad,0.983
13,NCI-H1975,0.286
14,SK-LU-1,0.522
15,NCI-H1944,0.464
16,NCI-H661,0.746
17,RERF-LC-KJ,1.01

# Same assay, conditions: first compound 0.005 µM
row,Cell Line,relative viability
1,NCI-H2009,0.315
2,A-427,0.778
3,NCI-H460,0.187
4,NCI-H727,0.375
5,NCI-H1734,0.724
6,NCI-H520,0.185
7,NCI-H2347,0.281
8,SW 1573,0.447
9,NCI-H1395,1.14
10,201T,0.705
11,NCI-H1915,0.284
12,HCC-827,0.553
13,LXF-289,0.689
14,NCI-H23,0.412
15,NCI-H650,1.01
16,CAL-12T,0.37
17,NCI-H1651,0.823

row,Cell Line,relative viability
1,EPLC-272H,0.284
2,NCI-H2228,0.576
3,NCI-H1792,0.421
4,NCI-H1355,0.298
5,NCI-H3122,0.213
6,NCI-H1437,0.551
7,NCI-H1755,0.779
8,NCI-H2023,0.539
9,HCC-15,0.39
10,PC-3 [JPC-3],0.758
11,EKVX,0.43
12,LC-2-ad,0.863
13,NCI-H1975,0.341
14,SK-LU-1,0.55
15,NCI-H1944,0.469
16,NCI-H661,0.52
17,RERF-LC-KJ,0.955

# Same assay, conditions: first compound 0.01581 µM
row,Cell Line,relative viability
1,NCI-H2009,0.31
2,A-427,0.708
3,NCI-H460,0.206
4,NCI-H727,0.379
5,NCI-H1734,0.491
6,NCI-H520,0.136
7,NCI-H2347,0.329
8,SW 1573,0.28
9,NCI-H1395,1.06
10,201T,0.735
11,NCI-H1915,0.368
12,HCC-827,0.552
13,LXF-289,0.681
14,NCI-H23,0.342
15,NCI-H650,1.27
16,CAL-12T,0.229
17,NCI-H1651,0.757

row,Cell Line,relative viability
1,EPLC-272H,0.31
2,NCI-H2228,0.531
3,NCI-H1792,0.453
4,NCI-H1355,0.557
5,NCI-H3122,0.217
6,NCI-H1437,0.518
7,NCI-H1755,0.768
8,NCI-H2023,0.621
9,HCC-15,0.418
10,PC-3 [JPC-3],0.842
11,EKVX,0.372
12,LC-2-ad,0.914
13,NCI-H1975,0.454
14,SK-LU-1,0.615
15,NCI-H1944,0.399
16,NCI-H661,0.376
17,RERF-LC-KJ,0.921

# Compound: COc1cc(Nc2ncc(F)c(Nc3ccc4c(n3)NC(=O)C(C)(C)O4)n2)cc(OC)c1OC [R406] + Cc1nc(NC(=O)N2CCC[C@H]2C(N)=O)sc1-c1ccnc(C(C)(C)C(F)(F)F)c1 [Alpelisib] (partner 2 µM)
# Experiment: as above
# Settings: first compound 0.08 µM
# Method in brief: as §1
row,Cell Line,relative viability
1,NCI-H2009,1.18
2,A-427,1.14
3,NCI-H460,0.495
4,NCI-H727,0.56
5,NCI-H1734,0.67
6,NCI-H520,0.913
7,NCI-H2347,0.984
